# Experimental data reported in patent US20260216350A1 (UNIVERSITY OF NOTRE DAME DU LAC, priority 2023, published 2026).
# What was measured:
# [1] = test system: STZ-induced diabetic mouse model; assay: Determination of functional formulation and dose in STZ mice; conditions: unmodified insulin 0.17 mg/kg; complexes 0.17 or 3.5 mg/kg Insulin-DiPBA
# Description: (§2) STZ Mouse Model. A chemically induce diabetes mouse model were established in male C57BL6/J mice (8 weeks, 25 g, Jackson Laboratory) using streptozotocin (STZ), according to common protocols. Mice were fasted for 4 h prior to injection with STZ at 150 mg/kg i.p., dissolved in pH 4.5 citrate buffer. Treated mice were fasted for an additional 0.5 h and were then supplied with food and water as normal. Treated mice were allowed to develop diabetes for 7 d, and diabetes was verified using handheld blood glucose meters (CVS), targeting unfasted blood glucose level (BGL) above 600 mg/dL.
# Mice were challenged with three intraperitoneal glucose tolerance tests (IPGTT).
# STZ diabetic mice [2] = assay: In vivo activity verification in overnight-fasted STZ diabetic mice; set-up: species or system mouse; conditions: 0.1 mg/kg s.c.
# Description: as §2
# In Vivo Activity Verification. STZ induced diabetic mice were fasted for 8 h on the eighth day following induction, and mice with BGL>350 mg/dL in their overnight fasted state were randomly divided into groups (n=4/group). […] BGLs for each group were continuously monitored for 6 h after treatment. Mice were fasted during the entire experiment.
# insulin receptor = insulin receptor (Homo sapiens, UniProt P06213); conditions: cited from earlier work
# Sequence of insulin receptor (P06213 28-758 limits assumed, species assumed): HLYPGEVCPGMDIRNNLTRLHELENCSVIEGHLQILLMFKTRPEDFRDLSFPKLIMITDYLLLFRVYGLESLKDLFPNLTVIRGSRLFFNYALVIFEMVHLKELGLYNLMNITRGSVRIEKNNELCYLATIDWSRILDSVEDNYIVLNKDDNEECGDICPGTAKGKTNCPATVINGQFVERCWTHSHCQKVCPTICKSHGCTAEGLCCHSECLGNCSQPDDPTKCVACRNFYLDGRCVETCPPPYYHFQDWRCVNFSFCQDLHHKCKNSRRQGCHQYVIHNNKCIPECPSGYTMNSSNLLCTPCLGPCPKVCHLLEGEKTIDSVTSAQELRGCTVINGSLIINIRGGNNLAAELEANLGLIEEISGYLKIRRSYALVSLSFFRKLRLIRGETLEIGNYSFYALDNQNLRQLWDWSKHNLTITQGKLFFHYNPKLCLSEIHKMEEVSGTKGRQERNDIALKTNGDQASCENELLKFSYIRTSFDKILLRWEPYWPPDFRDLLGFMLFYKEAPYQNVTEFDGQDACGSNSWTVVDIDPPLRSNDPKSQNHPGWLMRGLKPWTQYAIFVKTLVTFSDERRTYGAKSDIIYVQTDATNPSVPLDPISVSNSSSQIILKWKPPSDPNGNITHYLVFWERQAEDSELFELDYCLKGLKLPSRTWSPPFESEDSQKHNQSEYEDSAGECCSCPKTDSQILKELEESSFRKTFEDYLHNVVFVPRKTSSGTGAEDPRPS
# Sequence of insulin receptor (P06213 763-1382 partner limits assumed, species assumed): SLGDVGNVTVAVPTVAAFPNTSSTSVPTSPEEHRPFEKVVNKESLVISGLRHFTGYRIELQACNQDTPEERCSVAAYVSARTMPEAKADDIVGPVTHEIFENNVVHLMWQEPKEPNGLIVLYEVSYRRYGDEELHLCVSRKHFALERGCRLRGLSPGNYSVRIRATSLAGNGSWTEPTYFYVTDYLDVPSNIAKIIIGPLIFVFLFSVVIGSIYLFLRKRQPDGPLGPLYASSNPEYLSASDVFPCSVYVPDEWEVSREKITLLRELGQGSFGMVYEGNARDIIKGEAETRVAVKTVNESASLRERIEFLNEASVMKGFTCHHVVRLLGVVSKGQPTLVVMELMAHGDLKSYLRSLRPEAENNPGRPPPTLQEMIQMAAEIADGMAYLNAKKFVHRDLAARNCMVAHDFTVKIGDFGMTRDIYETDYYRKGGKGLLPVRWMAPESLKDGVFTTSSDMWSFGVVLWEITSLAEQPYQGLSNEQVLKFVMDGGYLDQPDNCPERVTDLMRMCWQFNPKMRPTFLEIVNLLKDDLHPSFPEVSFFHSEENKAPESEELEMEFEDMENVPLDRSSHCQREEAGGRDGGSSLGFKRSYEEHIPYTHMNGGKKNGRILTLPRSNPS
# [3] = test system: STZ-induced diabetic mice; assay: Multi-day blood glucose control study; format: in vivo, mouse
# Description: (§1) STZ Mouse Model. […] Specifics of these studies are detailed here:
# Multi-Day Blood Glucose Control Study. […] BGL was then monitored for an additional 3 h following IPGTT. Mice were fasted during the entire IPGTT period with free access to water. Mice were fed after IPGTT. At 48 h post treatment, mice were fasted for 5 h followed by an IPGTT challenge for 3 h. Mice were then fed at the end of IPGTT. The IPGTT challenges were repeated on Day 4 and Day 6. Area under the curve (AUC) for each IPGTT cycle was calculated using the trapezoidal rule and statistically analyzed using GraphPad Prism v 9.0.
# STZ diabetic mice [4] = assay: Long term blood glucose control study (serial dosing); format: in vivo, mouse
# Description: as §1
# Long term blood glucose control study. Healthy mice were first weighed individually and injected STZ following the above protocol. […] Mice were fed after treatment injection and brought back to their cage on Day 0. […] For all other groups, 48 h post treatment injection, mice were fasted for 5 h to adjust for time since last eating, followed with BGL measurement. The same process was repeated at 96 h following treatment injection. After measurement, mice were weighed individually. Mice were then re-dosed with the same formula every 5 days, collecting BGL at 48 h and 96 h following treatment with a 5 h fast; the process was repeated for one month.
# [5] = in vivo; cited from earlier work
substance,measurement,setting,value
"Insulin: recombinant human insulin, unmodified",BGL correction over three IPGTT cycles,[1],failed during the first IPGTT cycle
same,time after which blood glucose increased,STZ diabetic mice [2],~ 120 min
Insulin Detemir,insulin receptor binding affinity relative to unmodified insulin,insulin receptor,~ 25%
same,blood glucose control with daily administration,[3]; 1 IU/kg daily,did not sustain blood glucose control when this was not combined with overnight fasting
same,"blood glucose level after 3 h, day 0 challenge","[3]; overnight-fasted, complexes 10.4 mg/kg, Insulin Detemir 1 IU/kg",71 mg/dL
same,blood glucose throughout 5 weeks of repeat dosing,"STZ diabetic mice [4]; complexes every 5 d, 10.4 mg/kg, Insulin Detemir daily 1 IU/kg, 3 h fast",did not provide sustained blood glucose correction
same,body weight reduction from pre-STZ levels,STZ diabetic mice [4]; daily dosing,~ 20%
Insulin Glargine,duration of action,[5],24 to 36 h
